From patent US20230141863A1, “Small Molecule Inhibitors Targeting the Sodium Channel Tamoxifen Receptor and Uses Thereof” (Northwestern University, priority 2021, published 2023)

Columns and labels:
[1] = test system: T1, endogenous voltage-gated sodium channels expressed in murine DRG neurons; assay: Whole cell voltage clamp of endogenous sodium currents (INa) in cultured DRG sensory neurons; assay type: cell-based, mouse; conditions: for voltage dependence of INa inhibition (in words): −60 mV versus −100 mV holding potential
T1 construct: other: waiting for 5 minutes after removal; ND-Tam potency against DRG INa (IC50); other: DRG neurons, −60 mV holding potential; other: 3 μM ND-Tam treatment; other: DR
Procedure: FIG. 1. Tamoxifen metabolites inhibit endogenous voltage-gated sodium channels expressed in murine DRG neurons. A) DIC and fluorescence images of voltage clamped DRG neuron isolated and cultured from an Nav1.8-tomato mouse. Continuity with the patched neuron is indicted by the GFP (Alexa Fluor 488 dye 1 nM) loaded into the glass patch electrode. B) Top, exemplar sodium currents (INa) recorded in control saline and two concentrations of N-desmethyl tamoxifen (ND-Tam) from a voltage-clamped DRG neuron. INa was activated by 0.2 Hz train of 50 ms depolarizations to −10 mV from −100 mV holding potential. Bottom, time course of peak INa inhibition during control conditions and after 5 minutes of extracellular ND-Tam treatment. C) Resulting drug concentration-INa inhibition relationship for ND-Tam fit to the Hill equation. Open symbols represent responses from individual cells and filled symbols represent average response per concentration. Error is equal to S.E.M. (n=11) D) A comparison of the percent INa recovery after 3-10 μM ND-Tam or 1 mM carbamazepine (CBZ) inhibition. INa recovery was assessed after 5 minutes in control saline post drug exposure. Fewer INa recovered from ND-Tam exposure compared to CBZ exposure, 14.3±5.4% and 47.2±9.6%, respectively, and was statistically significant (P=0.03). Error is equal to S.E.M. and the number of cells tested per treatment group is indicated within the parentheses.
Previously, a unique receptor site for tamoxifen analogues within the prokaryotic sodium channel isolated form Magnetococcus marinus (NavMs)^36 (Sula et al) was crystallographically identified. Because drug occupancy of this receptor caused long lasting inhibition of the NavMs INa, the inventors wondered if these properties would translate into effects against sensory neuron Na s which transmit pain signals. Accordingly, =the potency of ND-Tam and 4OH-Tam was tested against endogenously expressed Na s in cultured DRG sensory neurons isolated from Nav1.8-tdTomato mice by conducting whole cell voltage clamp recordings (FIG. 1A, B). Sodium currents were activated by a 0.2 Hz train of −10 mV depolarizations from a holding potential of −100 mV. The externally applied drug effect was determined after three to five minutes of application of each drug concentration (FIG. 1B). […] As discussed in the introduction, total DRG INa is conducted by the Nav1.1, Nav1.6, Nav1.7, Nav1.8 and Nav1.9 subtypes. To determine if there is any specificity in the potency of tamoxifen analogues against Nav subtypes, human orthologues were heterologously expressed in cell lines (HEK and CHO co-expressing hb1 subunits), and conducted voltage-clamp experiments, as previously performed in the DRG neurons.
Dorsal root ganglia were isolated using a modified version of the previously described protocol (PMID: 26864470). All animal procedures were approved by the Institutional Animal Care and Use Committee at the Feinberg Medical School, Northwestern University. The spinal columns of 4-6-week-old […] or Nav1.8-Tomato mice (Nav1.8-Td) were removed and DRG neurons from all spinal levels were isolated for primary culture (PMID: 33827672, PMID: 31351964). The collected DRGs, containing both neuronal and non-neuronal cells, were acutely dissociated in DMEM with collagenase IV (2 mg/mL) for 30 minutes, followed by papain (25 U/mL) for 30 minutes. The cells were then triturated, filtered through a 40 μm cell strainer to remove non-dissociated cells, and washed with DMEM. The DRGs were resuspended in 70 μL of pre-warmed growth medium (DMEM F12+Glutamax supplemented with 0.5% FBS, 0.5% penicillin/streptomycin, 1% N-2 supplement, and β-NGF ([…]) added on the day of use) and plated on poly-l-lysine (10 mg/mL) and laminin (25 μg/mL) prepared coverslips. The DRGs were incubated at 37° C. for 2-4 hours before more growth medium was added to the wells. […]

[2] = target: T2, human Nav1.7 (Homo sapiens, UniProt Q15858); assay: Voltage clamp of heterologously expressed Nav1.7; assay type: cell-based; conditions: Hill fit, printed for ND-Tam and 4OH-Tam together
T2 construct: expressed in transfected cells; host or cells: HEK cells, transient transfection with lipofectamine
T2 sequence (Q15858 whole entry): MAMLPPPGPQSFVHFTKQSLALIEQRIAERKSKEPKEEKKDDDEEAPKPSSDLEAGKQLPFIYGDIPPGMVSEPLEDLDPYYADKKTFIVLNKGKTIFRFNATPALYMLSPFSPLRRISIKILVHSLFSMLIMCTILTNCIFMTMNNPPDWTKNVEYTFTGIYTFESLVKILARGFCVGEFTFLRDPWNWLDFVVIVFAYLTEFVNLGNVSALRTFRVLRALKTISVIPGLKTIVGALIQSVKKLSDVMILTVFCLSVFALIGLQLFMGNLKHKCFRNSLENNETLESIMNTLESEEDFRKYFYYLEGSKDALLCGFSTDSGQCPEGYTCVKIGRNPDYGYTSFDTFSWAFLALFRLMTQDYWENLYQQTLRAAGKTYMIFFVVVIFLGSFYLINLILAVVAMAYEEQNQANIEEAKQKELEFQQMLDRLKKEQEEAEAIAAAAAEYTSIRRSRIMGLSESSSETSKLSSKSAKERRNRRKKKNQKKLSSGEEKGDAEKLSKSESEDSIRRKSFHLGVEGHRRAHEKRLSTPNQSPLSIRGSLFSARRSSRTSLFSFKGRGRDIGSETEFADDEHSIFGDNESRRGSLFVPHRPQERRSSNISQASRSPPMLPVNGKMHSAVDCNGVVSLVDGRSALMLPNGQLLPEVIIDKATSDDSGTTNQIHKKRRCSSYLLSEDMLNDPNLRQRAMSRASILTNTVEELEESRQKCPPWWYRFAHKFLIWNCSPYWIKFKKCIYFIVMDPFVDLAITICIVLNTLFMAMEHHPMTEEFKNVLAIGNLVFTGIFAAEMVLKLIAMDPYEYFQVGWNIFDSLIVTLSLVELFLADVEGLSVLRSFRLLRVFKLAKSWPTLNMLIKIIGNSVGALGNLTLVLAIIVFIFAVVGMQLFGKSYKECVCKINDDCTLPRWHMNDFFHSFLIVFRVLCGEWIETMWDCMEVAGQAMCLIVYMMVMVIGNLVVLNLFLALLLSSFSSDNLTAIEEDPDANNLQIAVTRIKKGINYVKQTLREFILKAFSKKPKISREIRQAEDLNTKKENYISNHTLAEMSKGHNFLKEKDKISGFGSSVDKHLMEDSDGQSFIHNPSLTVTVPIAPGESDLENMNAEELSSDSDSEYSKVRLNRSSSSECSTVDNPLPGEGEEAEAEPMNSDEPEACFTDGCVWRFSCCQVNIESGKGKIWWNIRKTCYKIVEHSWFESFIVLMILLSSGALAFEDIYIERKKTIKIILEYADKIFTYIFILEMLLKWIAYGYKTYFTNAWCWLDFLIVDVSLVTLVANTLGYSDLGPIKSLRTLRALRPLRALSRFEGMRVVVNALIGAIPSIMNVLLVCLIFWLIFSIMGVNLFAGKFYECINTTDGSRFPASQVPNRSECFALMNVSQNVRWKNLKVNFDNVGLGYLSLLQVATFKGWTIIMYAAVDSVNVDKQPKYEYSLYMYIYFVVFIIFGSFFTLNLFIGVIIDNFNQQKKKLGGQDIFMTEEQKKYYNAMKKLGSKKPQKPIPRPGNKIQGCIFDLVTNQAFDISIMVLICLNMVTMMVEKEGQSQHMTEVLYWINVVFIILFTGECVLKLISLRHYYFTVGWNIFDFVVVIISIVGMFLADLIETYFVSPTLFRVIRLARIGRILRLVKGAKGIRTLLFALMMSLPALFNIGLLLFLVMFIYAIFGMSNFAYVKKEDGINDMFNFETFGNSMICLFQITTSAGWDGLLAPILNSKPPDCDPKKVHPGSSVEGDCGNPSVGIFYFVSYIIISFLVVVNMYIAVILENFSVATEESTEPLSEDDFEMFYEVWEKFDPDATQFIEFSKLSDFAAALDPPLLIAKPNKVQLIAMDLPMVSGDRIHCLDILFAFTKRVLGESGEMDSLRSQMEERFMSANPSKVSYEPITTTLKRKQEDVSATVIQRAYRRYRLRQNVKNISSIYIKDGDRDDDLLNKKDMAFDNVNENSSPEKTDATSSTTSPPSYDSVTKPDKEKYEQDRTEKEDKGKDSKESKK
Procedure: While no clear drug-receptor interactions were determined within Siteout, the S6 E220 side chains formed hydrogen bond interactions with the ether and amine moieties of the ND-Tam molecules found at Sitein. […] After structural alignment of the crystalized NavMs-Tam complex with the cryo EM Nav1.7+b1+b2 channel coordinates, the S6 side chain hydroxyl in DII (S969) and the carboxyl side chains in DIII (E1458) and DIV (D1761) observed in the human channel were nearly superimposable with E220 of the prokaryotic Nav subunits. In addition, the distances from the drug ether and amines were within acceptable distances (2.8-3.1 Å) for hydrogen bond formation for all three site chains (FIG. 2B). […]
Plasmids encoding the human version of channels Nav1.1, 1.6, and 1.7 were co-transfected with TRES GFP into HEK cell lines for whole-cell voltage clamp studies (American Type Culture Collection). […] Plasma membrane currents were recorded using borosilicate glass electrodes polished to resistances of […]. Sodium currents conducted by heterologously expressed Navs were recorded using the following solutions (in mM). […] Endogenous DRG sodium currents were recorded using an intracellular solution consisting of 70 CsCl, 70 CsF, 2 EGTA, 5 HEPES, and 5 NaCl; the pH was adjusted to 7.4 with CsOH. […]

[3] = test system: mice with knee hyperalgesia post DMM surgery; assay: In vivo osteoarthritis pain model (DMM), knee hyperalgesia after intra-articular injection; set-up: species or system mouse; conditions: 50 μM intra-articular, vehicle 0.1% DMSO; for knee hyperalgesia versus vehicle, direct comparison study (in words): 30 minutes after injection; for knee withdrawal threshold versus vehicle control (in words): through 3 hours after injection
[4] = test system: mice with knee hyperalgesia post DMM surgery; conditions: 20 mg/kg, ~0.85M, PMID: 29563338; cited from earlier work

IC50 ([1]; DRG neurons, −100 mV holding potential, 0.2 Hz train of −10 mV depolarizations, read-out: half maximal potency of INa inhibition (IC50)) [µM]	slope of concentration-dependence [2]	SMILES	inhibition of sodium currents recorded from DRG neurons (in words) ([1]; tamoxifen analogs and fragments, FIG. 7B)	voltage dependence of INa inhibition (in words) [1]	knee hyperalgesia versus vehicle, direct comparison study (in words) [3]	knee withdrawal threshold versus vehicle control (in words) [3]	knee hyperalgesia after local injection of a relatively high dose (in words) [4]
3.3	2.1	CC/C(=C(\c1ccc(O)cc1)c1ccc(OCCN(C)C)cc1)c1ccccc1 [4OH-Tam, 4-[(Z)-1-[4-[2-(dimethylamino)ethoxy]phenyl]-2-phenylbut-1-enyl]phenol]	inhibited sodium currents				
		C=C(C)[C@@H]1CCC(C)=C[C@H]1c1c(O)cc(CCCCC)cc1O [CBD, cannabidiol, reference compound]		followed this trend	effectively inhibited knee hyperalgesia	remained elevated compared to vehicle control through 3 hours after injection	
		NC(=O)N1c2ccccc2C=Cc2ccccc21 [CBZ, carbamazepine, reference compound]		most potent when membranes were held at −60 mV			
		CCN(CC)CC(=O)Nc1c(C)cccc1C [lidocaine, reference compound]		most potent when membranes were held at −60 mV	effectively inhibited knee hyperalgesia	remained elevated compared to vehicle control through 3 hours after injection	able to acutely reverse knee hyperalgesia
